Reference: patent US11547697B2, “Heterocyclic compounds and uses thereof” (MILLENNIUM PHARMACEUTICALS, INC., priority 2009, dated 2023)
Where two headings read alike, the source gives them in different places.

Key:
Format in all cases: biochemical
p110α/p85α = p110α/p85α (Homo sapiens (Human), UniProt P42336); assay: PI 3-Kinase (human) HTRF assay, p110α/p85α
p110δ/p85α = p110δ/p85α (Homo sapiens (Human), UniProt O00329); assay: PI 3-Kinase (human) HTRF assay, p110δ/p85α
Description: An exemplary system is PI 3-Kinase (human) HTRF™ Assay from Upstate. […] Briefly, the assay is a time resolved FRET assay that indirectly measures PIP3 product formed by the activity of a PI3-K. The kinase reaction is performed in a microtitre plate (e.g., a 384 well microtitre plate). The total reaction volume is approximately 20 ul per well. In the first step, each well receives 2 ul of test compound in 20% dimethylsulphoxide resulting in a 2% DMSO final concentration. Next, approximately 14.5 ul of a kinase/PIP2 mixture (diluted in 1× reaction buffer) is added per well for a final concentration of 0.25-0.3 ug/ml kinase and 10 μM PIP2. The plate is sealed and incubated for 15 minutes at room temperature. To start the reaction, 3.5 ul of ATP (diluted in 1× reaction buffer) is added per well for a final concentration of 10 μM ATP. The plate is sealed and incubated for 1 hour at room temperature. The reaction is stopped by adding 5 ul of Stop Solution per well and then 5 ul of Detection Mix is added per well. The plate is sealed, incubated for 1 hour at room temperature, and then read on an appropriate plate reader. Data is analyzed and IC50s are generated using GraphPad Prism 5. […] For PI3K α, β, δ, and γ, the nM concentration of inhibitor to reach IC50 is provided.

p110γ = p110γ (Homo sapiens (Human), UniProt P48736); assay: PI 3-Kinase (human) HTRF assay, p110γ
Chain of p110γ (P48736 whole entry): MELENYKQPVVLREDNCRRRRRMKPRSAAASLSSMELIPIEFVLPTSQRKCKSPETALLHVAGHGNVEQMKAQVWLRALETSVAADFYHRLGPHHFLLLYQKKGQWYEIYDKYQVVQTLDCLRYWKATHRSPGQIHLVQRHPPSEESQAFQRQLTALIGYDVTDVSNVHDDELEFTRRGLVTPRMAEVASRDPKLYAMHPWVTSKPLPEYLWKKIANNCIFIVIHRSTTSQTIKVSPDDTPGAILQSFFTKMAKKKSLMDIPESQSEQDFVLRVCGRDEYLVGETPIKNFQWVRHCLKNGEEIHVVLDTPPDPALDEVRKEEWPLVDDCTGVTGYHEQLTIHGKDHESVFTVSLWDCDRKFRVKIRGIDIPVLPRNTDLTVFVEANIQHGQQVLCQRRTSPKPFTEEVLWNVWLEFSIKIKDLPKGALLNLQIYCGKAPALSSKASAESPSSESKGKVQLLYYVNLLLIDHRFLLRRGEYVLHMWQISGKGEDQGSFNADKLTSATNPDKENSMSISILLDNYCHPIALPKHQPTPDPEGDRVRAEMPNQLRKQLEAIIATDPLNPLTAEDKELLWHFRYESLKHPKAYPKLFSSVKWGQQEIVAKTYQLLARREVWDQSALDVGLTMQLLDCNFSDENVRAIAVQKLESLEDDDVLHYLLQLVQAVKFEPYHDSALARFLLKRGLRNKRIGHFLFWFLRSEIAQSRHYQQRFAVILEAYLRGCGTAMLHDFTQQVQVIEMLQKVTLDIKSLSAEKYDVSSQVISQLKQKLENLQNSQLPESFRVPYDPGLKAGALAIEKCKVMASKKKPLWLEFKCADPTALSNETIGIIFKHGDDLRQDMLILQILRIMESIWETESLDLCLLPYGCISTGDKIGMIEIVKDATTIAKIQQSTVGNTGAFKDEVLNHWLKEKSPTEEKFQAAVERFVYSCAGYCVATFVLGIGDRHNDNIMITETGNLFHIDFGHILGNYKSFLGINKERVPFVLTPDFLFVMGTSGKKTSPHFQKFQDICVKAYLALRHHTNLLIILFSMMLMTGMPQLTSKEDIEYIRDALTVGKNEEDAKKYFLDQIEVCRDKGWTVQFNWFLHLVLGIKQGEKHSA

p110β/p85α = p110β/p85α (Homo sapiens (Human), UniProt P42338); assay: PI 3-Kinase (human) HTRF assay, p110β/p85α
Chain of p110β/p85α (P42338 whole entry): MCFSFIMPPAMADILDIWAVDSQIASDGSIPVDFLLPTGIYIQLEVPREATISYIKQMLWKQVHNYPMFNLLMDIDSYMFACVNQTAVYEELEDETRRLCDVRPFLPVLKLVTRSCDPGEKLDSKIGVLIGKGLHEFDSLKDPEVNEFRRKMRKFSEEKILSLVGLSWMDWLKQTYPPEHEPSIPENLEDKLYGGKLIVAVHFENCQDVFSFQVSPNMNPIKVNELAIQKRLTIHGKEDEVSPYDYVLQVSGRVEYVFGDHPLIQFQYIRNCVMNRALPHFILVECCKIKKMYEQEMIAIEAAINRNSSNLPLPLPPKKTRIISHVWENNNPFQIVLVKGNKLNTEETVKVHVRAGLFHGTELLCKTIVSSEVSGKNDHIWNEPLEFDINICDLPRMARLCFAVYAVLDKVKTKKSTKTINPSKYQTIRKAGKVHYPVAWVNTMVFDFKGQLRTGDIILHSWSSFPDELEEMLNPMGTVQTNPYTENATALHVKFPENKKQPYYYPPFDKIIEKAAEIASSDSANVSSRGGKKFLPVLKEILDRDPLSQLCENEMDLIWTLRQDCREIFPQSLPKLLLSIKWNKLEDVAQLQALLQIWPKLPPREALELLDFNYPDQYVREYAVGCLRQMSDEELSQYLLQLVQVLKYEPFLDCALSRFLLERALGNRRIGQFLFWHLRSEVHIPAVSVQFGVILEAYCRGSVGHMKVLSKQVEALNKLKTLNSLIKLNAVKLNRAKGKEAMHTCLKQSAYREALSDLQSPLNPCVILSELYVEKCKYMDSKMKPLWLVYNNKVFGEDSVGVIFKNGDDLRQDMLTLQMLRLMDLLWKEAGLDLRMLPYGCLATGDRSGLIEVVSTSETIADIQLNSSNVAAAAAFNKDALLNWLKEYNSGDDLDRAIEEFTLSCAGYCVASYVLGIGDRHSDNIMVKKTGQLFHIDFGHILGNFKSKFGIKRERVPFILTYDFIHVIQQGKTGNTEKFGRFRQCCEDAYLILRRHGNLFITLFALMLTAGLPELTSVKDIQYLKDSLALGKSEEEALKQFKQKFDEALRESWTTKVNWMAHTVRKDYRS
Chain of p110β/p85α (P27986 whole entry partner): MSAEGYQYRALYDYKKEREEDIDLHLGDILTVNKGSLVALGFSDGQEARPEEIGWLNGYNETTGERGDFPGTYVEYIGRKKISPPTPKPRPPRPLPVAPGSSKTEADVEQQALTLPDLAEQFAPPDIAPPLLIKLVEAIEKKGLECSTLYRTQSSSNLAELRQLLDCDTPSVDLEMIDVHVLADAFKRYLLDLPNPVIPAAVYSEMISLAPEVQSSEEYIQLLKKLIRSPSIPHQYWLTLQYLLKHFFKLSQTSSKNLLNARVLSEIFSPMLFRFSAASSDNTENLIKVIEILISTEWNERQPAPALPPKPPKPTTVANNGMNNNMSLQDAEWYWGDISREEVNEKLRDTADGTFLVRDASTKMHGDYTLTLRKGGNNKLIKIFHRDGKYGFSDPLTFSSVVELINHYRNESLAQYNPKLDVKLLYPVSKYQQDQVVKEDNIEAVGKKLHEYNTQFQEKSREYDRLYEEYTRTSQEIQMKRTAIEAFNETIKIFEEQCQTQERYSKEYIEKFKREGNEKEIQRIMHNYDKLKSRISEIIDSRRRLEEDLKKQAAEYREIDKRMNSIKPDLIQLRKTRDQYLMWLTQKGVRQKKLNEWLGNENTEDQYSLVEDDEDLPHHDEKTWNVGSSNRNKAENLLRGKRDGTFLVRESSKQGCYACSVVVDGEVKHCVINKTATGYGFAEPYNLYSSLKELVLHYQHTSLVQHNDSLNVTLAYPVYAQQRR

[1] = in vitro, read-out: PI3K α IC50
[2] = in vitro, read-out: PI3K δ IC50
[3] = in vitro, read-out: PI3K γ IC50
[4] = in vitro, read-out: PI3K β IC50

Chain of p110δ/p85α (O00329 whole entry): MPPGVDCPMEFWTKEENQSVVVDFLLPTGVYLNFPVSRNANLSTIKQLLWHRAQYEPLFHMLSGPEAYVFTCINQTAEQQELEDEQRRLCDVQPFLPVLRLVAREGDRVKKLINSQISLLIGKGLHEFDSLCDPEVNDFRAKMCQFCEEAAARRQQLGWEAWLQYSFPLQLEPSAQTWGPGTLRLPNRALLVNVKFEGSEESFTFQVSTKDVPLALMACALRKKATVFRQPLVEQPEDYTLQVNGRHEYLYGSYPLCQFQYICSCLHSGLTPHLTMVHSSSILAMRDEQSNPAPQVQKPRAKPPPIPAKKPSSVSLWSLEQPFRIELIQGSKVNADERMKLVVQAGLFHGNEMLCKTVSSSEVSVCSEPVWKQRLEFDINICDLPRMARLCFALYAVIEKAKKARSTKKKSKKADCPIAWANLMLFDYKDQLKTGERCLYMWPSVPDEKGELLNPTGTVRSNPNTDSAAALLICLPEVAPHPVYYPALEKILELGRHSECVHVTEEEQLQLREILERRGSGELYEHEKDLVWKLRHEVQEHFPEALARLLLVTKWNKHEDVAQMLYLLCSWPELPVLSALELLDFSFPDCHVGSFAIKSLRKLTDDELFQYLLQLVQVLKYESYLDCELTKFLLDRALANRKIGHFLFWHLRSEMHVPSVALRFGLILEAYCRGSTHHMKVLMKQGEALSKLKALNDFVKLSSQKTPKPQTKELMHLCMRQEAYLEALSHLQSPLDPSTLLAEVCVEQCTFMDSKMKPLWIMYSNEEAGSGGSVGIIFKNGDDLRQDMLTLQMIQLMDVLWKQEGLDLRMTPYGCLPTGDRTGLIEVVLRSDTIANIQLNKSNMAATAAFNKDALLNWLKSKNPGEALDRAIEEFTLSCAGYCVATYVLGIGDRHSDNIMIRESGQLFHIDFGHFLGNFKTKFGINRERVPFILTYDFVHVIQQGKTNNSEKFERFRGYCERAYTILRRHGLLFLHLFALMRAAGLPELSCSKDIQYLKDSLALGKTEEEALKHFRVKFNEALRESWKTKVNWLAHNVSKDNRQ
Chain of p110δ/p85α (P27986 whole entry partner): as the sequence (P27986 whole entry partner) above
Chain of p110α/p85α (P42336 whole entry): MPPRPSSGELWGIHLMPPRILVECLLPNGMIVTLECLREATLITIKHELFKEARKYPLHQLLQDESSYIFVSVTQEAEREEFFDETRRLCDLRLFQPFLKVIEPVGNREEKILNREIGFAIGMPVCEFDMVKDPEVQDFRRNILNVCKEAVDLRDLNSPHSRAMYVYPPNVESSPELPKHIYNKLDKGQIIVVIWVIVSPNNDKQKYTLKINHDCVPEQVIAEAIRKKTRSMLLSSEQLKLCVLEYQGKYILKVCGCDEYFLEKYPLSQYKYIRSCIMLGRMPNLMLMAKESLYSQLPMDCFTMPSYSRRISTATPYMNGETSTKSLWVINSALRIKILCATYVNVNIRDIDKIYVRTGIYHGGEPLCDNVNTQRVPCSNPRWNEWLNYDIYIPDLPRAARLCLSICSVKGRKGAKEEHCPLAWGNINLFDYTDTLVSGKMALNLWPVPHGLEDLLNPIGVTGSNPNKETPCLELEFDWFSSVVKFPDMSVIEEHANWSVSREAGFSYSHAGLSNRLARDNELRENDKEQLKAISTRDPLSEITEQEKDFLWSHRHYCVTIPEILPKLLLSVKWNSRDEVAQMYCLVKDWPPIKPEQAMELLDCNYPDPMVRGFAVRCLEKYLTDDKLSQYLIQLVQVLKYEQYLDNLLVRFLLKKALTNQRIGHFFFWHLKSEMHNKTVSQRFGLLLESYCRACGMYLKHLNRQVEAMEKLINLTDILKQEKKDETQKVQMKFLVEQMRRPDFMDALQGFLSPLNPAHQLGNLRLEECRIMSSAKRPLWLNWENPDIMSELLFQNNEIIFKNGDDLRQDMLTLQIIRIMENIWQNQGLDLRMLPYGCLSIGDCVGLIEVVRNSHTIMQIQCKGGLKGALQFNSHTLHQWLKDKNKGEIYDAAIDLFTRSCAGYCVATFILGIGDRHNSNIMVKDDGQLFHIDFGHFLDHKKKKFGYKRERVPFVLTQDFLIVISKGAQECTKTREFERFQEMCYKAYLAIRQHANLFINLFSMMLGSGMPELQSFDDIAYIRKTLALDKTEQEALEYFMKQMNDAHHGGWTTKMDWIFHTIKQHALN
Chain of p110α/p85α (P27986 whole entry partner): as the sequence (P27986 whole entry partner) above

Structure (SMILES) | IC50 (p110α/p85α; read-out: PI3K α IC50) [nM] | IC50 (p110δ/p85α; read-out: PI3K δ IC50) [nM] | IC50 (p110γ; read-out: PI3K γ IC50) [nM] | IC50 (p110α/p85α; read-out: PI3K α In Vitro IC50) [nM] | IC50 (p110γ; read-out: PI3K γ In Vitro IC50) [nM] | other results
Nc1nsc2cc(-c3ccc4nccc(-c5ccncc5)c4c3)ccc12 [compound 13] | < 100 | < 1000 | < 1000 |  |  | IC50 (p110β/p85α; read-out: PI3K β IC50): < 1000 nM
Nc1nc2cccc(-c3ccc4nccc(-c5ccncc5)c4c3)c2s1 [compound 17] | < 100 | < 1000 | < 100 |  |  | IC50 (p110β/p85α; read-out: PI3K β IC50): < 1000 nM
Nc1nc2cc(-c3ccc4nccc(-c5cn[nH]c5)c4c3)ccc2o1 [compound 20] | < 100 | < 100 |  |  |  | IC50 (p110β/p85α; read-out: PI3K β IC50): < 100 nM
Nc1nc2cc(-c3ccc4nccc(CCN5CCOCC5)c4c3)ccc2o1 [compound 27] | < 1000 | < 10000 | < 100 |  |  | 
Nc1nc2cc(-c3ccc4nccc(N5CCOCC5)c4c3)ccc2o1 [compound 28] | < 100 | < 1000 | < 100 |  |  | 
Nc1nc2cc(-c3ccc4ncnc(N5CCC(O)CC5)c4c3)ccc2o1 [compound 29] | < 100 | < 100 | < 100 |  |  | 
CN1CCN(c2cc(-c3ccnc4ccc(-c5ccc6oc(N)nc6c5)cc34)ccn2)CC1 [compound 30] | < 100 | < 100 | < 100 |  |  | 
Nc1nc2cc(-c3ccc4nccc(-c5cccnc5)c4c3)ccc2o1 [compound 31] | < 100 | < 100 | < 100 |  |  | 
Nc1nc2cc(-c3ccc4nccc(NCCN5CCOCC5)c4c3)ccc2o1 [compound 33] | < 100 | < 1000 | < 1000 |  |  | 
CN1CCC(Oc2ncnc3ccc(-c4ccc5oc(N)nc5c4)cc23)CC1 [compound 34] | < 100 | < 1000 | < 100 |  |  | 
Nc1nc2cc(-c3ccc4ncc(-c5cccnc5)n4c3)ccc2o1 [compound 37] | < 100 | < 100 | < 100 |  |  | 
Nc1nc2cc(-c3ccc4ncc(-c5cn[nH]c5)n4c3)ccc2o1 [compound 38] | < 100 | < 100 | < 100 |  |  | 
Nc1nc2cc(-c3ccc4ncc(C#CC5CC5)n4c3)ccc2o1 [compound 39] | < 100 | < 100 | < 100 |  |  | 
CN1CCN(c2cc(-c3cnc4ccc(-c5ccc6oc(N)nc6c5)cn34)ccn2)CC1 [compound 43] | < 100 | < 100 | < 100 |  |  | 
Nc1nc2ccc(-c3ccc4ncc(C(=O)N5CCOCC5)n4c3)cc2s1 [compound 125] | < 1000 | < 10000 | < 1000 |  |  | 
Nc1nc2cc(-c3ccc4ncc(C(=O)Nc5cccnc5)n4c3)ccc2o1 [compound 190] | < 100 | < 1000 | < 100 |  |  | 
Nc1nc2cc(-c3ccc4ncc(N5CCN(C(=O)C6(N)CC6)CC5)nc4c3)ccc2o1 [compound 226] |  |  |  |  |  | IC50 (p110α/p85α; [1]): < 1000 nM; IC50 (p110δ/p85α; [2]): < 10000 nM; IC50 (p110γ; [3]): < 10000 nM
Nc1nc2cc(-c3ccc4ncc(N5CC(C(=O)N6CCOCC6)C5)nc4c3)ccc2o1 [compound 252] |  |  |  |  |  | IC50 (p110δ/p85α; [2]): < 10000 nM; IC50 (p110γ; [3]): < 10000 nM; IC50 (p110β/p85α; [4]): < 10000 nM
CN1CCN(C(=O)C2CN(c3cnc4ccc(-c5ccc6oc(N)nc6c5)cc4n3)C2)CC1 [compound 253] |  |  |  |  |  | IC50 (p110δ/p85α; [2]): < 10000 nM; IC50 (p110γ; [3]): < 10000 nM; IC50 (p110β/p85α; [4]): < 10000 nM
Nc1nc2cc(-c3ccc4ncn(CCCN5CCCC5)c(=O)c4c3)ccc2o1 [compound 271] |  |  |  |  |  | IC50 (p110α/p85α; [1]): < 1000 nM; IC50 (p110δ/p85α; [2]): < 10000 nM; IC50 (p110β/p85α; [4]): < 10000 nM
CCN(CC)CCCn1cnc2ccc(-c3ccc4oc(N)nc4c3)cc2c1=O [compound 281] |  |  |  |  |  | IC50 (p110α/p85α; [1]): < 1000 nM; IC50 (p110δ/p85α; [2]): < 10000 nM
Nc1nc2cc(-c3ccc4ncc(C(=O)NCCN5CCCC5)n4c3)ccc2o1 [compound 296] |  |  |  |  |  | IC50 (p110α/p85α; [1]): < 1000 nM; IC50 (p110δ/p85α; [2]): < 1000 nM; IC50 (p110β/p85α; [4]): < 10000 nM
CC1(C)CN(c2cnc3ccc(-c4ccc5oc(N)nc5c4)cc3n2)CCN1 [compound 336] |  |  |  |  |  | IC50 (p110α/p85α; [1]): < 1000 nM; IC50 (p110δ/p85α; [2]): < 10000 nM; IC50 (p110β/p85α; [4]): < 1000 nM

Structure (SMILES) | IC50 (p110α/p85α; read-out: PI3K α IC50) [nM] | IC50 (p110δ/p85α; read-out: PI3K δ IC50) [nM] | IC50 (p110γ; read-out: PI3K γ IC50) [nM] | IC50 (p110α/p85α; read-out: PI3K α In Vitro IC50) [nM] | IC50 (p110γ; read-out: PI3K γ In Vitro IC50) [nM] | other results
C[C@H]1CN(C2CN(c3cnc4ccc(-c5ccc6oc(N)nc6c5)cc4n3)C2)CCN1 [compound 350] |  |  |  |  |  | IC50 (p110α/p85α; [1]): < 100 nM; IC50 (p110δ/p85α; [2]): < 10000 nM; IC50 (p110β/p85α; [4]): < 10000 nM
Cc1c(-c2ccc3oc(N)nc3c2)ccc2ncc(N3CCN[C@@H](C)C3)nc12 [compound 374] |  |  |  |  |  | IC50 (p110α/p85α; [1]): < 1000 nM; IC50 (p110δ/p85α; [2]): < 10000 nM; IC50 (p110β/p85α; [4]): < 100 nM
COc1ncc(-c2ccc3ncc(C(=O)N4CCOCC4)n3c2)cc1NS(=O)(=O)c1ccccc1 [compound 420] |  |  |  | < 100 | < 1000 | IC50 (p110δ/p85α; read-out: PI3K δ In Vitro IC50): < 1000 nM
O=C(c1cnc2ccc(-c3cncc(NS(=O)(=O)c4ccccc4)c3)cn12)N1CCOCC1 [compound 424] |  |  |  | < 1000 | < 1000 | IC50 (p110δ/p85α; read-out: PI3K δ In Vitro IC50): < 10000 nM
O=C(c1cnc2ccc(-c3cncc(NS(=O)(=O)c4ccc(F)cc4F)c3)cn12)N1CCOCC1 [compound 425] |  |  |  | < 100 | < 100 | IC50 (p110δ/p85α; read-out: PI3K δ In Vitro IC50): < 1000 nM
Nc1nc2cc(-c3ccc4sc(N)nc4c3)cc(F)c2o1 [compound 437] |  |  |  | < 10000 | < 1000 | IC50 (p110β/p85α; read-out: PI3K β In Vitro IC50): < 1000 nM
Cc1cc(-c2ccc3nc(N)oc3c2)cn2c(C(=O)N3CCOCC3)cnc12 [compound 449] |  |  |  | < 1000 | < 100 | IC50 (p110β/p85α; read-out: PI3K β In Vitro IC50): < 1000 nM
O=C(c1cnc2ccc(-c3cccc(NS(=O)(=O)c4ccc(F)cc4F)c3)cn12)N1CCOCC1 [compound 454] |  |  |  | < 10000 | < 10000 | IC50 (p110δ/p85α; read-out: PI3K δ In Vitro IC50): < 10000 nM
Nc1nc2cc(-c3ccc4ncc(C(=O)N5CC(F)C5)n4c3)ccc2o1 [compound 468] |  |  |  | < 100 | < 100 | IC50 (p110β/p85α; read-out: PI3K β In Vitro IC50): < 10000 nM
Nc1nc2cc(-c3ccc4ncc(C(=O)N5CC[C@@H](F)C5)n4c3)ccc2o1 [compound 475] |  |  |  | < 100 | < 100 | IC50 (p110δ/p85α; read-out: PI3K δ In Vitro IC50): < 10000 nM
Nc1nc2cc(-c3ccc4ncc(C(=O)N5CC[C@@H](n6cccn6)C5)n4c3)ccc2o1 [compound 477] |  |  |  | < 100 | < 1000 | IC50 (p110δ/p85α; read-out: PI3K δ In Vitro IC50): < 10000 nM
Nc1nc2cc(-c3ccc4ncc(C(=O)N5CC(n6cccn6)C5)n4c3)ccc2o1 [compound 479] |  |  |  | < 100 | < 1000 | IC50 (p110δ/p85α; read-out: PI3K δ In Vitro IC50): < 10000 nM
C[C@H]1CCCN1C(=O)c1cnc2ccc(-c3ccc4oc(N)nc4c3)cn12 [compound 482] |  |  |  | < 100 | < 1000 | IC50 (p110δ/p85α; read-out: PI3K δ In Vitro IC50): < 10000 nM
O=C(c1cnc2ccc(-c3cnc4[nH]ncc4c3)cn12)N1CCOCC1 [compound 492] |  |  |  |  | < 10000 | IC50 (p110δ/p85α; read-out: PI3K δ In Vitro IC50): < 10000 nM; IC50 (p110β/p85α; read-out: PI3K β In Vitro IC50): < 10000 nM
Nc1nc2cc(-c3ccc4ncc(C(=O)N5CCn6cncc6C5)n4c3)ccc2o1 [compound 493] |  |  |  | < 100 | < 10000 | IC50 (p110β/p85α; read-out: PI3K β In Vitro IC50): < 1000 nM
Nc1nc2cc(-c3ccc4ncc(C(=O)N5CC6(C5)OCCO6)n4c3)ccc2o1 [compound 494] |  |  |  | < 100 | < 1000 | IC50 (p110β/p85α; read-out: PI3K β In Vitro IC50): < 10000 nM
C[C@@H]1COCCN1C(=O)c1cnc2ccc(-c3ccc4oc(N)nc4c3)cn12 [compound 495] |  |  |  | < 100 | < 1000 | IC50 (p110β/p85α; read-out: PI3K β In Vitro IC50): < 10000 nM
Nc1nc2c(-c3ccc4ncc(C(=O)N5CCOCC5)n4c3)cccc2o1 [compound 496] |  |  |  | < 1000 | < 10000 | IC50 (p110β/p85α; read-out: PI3K β In Vitro IC50): < 10000 nM
Nc1nc2cc(-c3ccc4ncc(C(=O)N5CCC(N6CCC(F)(F)C6)C5)n4c3)ccc2o1 (stereo not shown) [compound 500] |  |  |  | < 1000 | < 10000 | IC50 (p110δ/p85α; read-out: PI3K δ In Vitro IC50): < 10000 nM
Nc1nc2cc(-c3ccc4ncc(C(=O)N5CC(N6CCC(F)(F)C6)C5)n4c3)ccc2o1 [compound 502] |  |  |  | < 100 | < 1000 | IC50 (p110δ/p85α; read-out: PI3K δ In Vitro IC50): < 10000 nM
Nc1nc2cc(-c3ccc4ncc(C(=O)N5CC6CCC(C5)O6)n4c3)ccc2o1 [compound 504] |  |  |  | < 1000 | < 100 | IC50 (p110β/p85α; read-out: PI3K β In Vitro IC50): < 10000 nM
COc1ncc(-c2ccc3ncc(C(=O)N4CCOCC4)n3c2)c2cn[nH]c12 [compound 517] |  |  |  | < 1000 | < 10000 | IC50 (p110δ/p85α; read-out: PI3K δ In Vitro IC50): < 10000 nM
